Counter-ions that a name gives are not always drawn. Where only a bound is given, the exact number is not on record here.

The target of test [1] is T1, TLR7 (Homo sapiens, UniProt Q9NYK1).
T1 construct: expressed in transfected cells; host or cells: HEK/293 cells carrying TLR7 and an NF-kB luciferase reporter
T1 sequence (Q9NYK1 27-1049): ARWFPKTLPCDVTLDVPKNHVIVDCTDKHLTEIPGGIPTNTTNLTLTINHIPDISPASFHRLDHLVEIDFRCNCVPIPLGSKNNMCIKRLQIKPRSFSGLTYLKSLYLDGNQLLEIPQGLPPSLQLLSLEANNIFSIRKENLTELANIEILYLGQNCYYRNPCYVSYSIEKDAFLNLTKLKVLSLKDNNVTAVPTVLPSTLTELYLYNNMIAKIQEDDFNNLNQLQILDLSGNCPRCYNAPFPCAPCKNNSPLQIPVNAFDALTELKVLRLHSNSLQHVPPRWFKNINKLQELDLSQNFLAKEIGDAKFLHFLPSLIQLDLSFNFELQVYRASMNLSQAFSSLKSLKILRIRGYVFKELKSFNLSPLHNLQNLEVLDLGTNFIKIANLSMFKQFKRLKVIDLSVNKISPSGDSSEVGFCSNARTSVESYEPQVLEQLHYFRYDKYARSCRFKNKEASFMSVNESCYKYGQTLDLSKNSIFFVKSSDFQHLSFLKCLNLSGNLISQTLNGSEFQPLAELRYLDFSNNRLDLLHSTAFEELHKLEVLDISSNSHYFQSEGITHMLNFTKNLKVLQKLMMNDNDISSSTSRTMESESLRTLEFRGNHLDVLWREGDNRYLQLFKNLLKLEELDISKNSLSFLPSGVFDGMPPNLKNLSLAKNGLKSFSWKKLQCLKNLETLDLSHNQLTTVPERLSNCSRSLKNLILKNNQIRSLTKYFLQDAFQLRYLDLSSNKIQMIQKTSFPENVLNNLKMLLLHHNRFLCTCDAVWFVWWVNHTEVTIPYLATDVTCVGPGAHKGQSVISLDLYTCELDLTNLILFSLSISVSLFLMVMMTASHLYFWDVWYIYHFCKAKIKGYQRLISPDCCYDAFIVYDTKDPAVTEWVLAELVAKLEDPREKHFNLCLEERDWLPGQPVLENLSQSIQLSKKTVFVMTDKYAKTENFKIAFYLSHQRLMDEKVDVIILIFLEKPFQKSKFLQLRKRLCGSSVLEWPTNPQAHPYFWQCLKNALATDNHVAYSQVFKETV
Nature of the test: HEK/293 TLR7 Cell Assay. In kind it is cell-based. The note with it: TLR7/NFKb HEK cells, R848 agonist 10 uM final concentration, Steady-Glo readout; read-out: TLR7 potency. Summed up: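 Compounds added to HEK cells expressing TLR7 with an NFκB reporter 30 min ahead of 10 uM R848 challenge; luciferase signal (Steady-Glo) measured after 5 h, cells having been seeded 24 h earlier at 5000 per well.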

The target in test [2] is T2, TLR8 (Homo sapiens, UniProt Q9NR97).
T2 construct: expressed in transfected cells; host or cells: HEK/293 reporter cells (NF-kB luciferase)
T2 sequence (Q9NR97 27-1041): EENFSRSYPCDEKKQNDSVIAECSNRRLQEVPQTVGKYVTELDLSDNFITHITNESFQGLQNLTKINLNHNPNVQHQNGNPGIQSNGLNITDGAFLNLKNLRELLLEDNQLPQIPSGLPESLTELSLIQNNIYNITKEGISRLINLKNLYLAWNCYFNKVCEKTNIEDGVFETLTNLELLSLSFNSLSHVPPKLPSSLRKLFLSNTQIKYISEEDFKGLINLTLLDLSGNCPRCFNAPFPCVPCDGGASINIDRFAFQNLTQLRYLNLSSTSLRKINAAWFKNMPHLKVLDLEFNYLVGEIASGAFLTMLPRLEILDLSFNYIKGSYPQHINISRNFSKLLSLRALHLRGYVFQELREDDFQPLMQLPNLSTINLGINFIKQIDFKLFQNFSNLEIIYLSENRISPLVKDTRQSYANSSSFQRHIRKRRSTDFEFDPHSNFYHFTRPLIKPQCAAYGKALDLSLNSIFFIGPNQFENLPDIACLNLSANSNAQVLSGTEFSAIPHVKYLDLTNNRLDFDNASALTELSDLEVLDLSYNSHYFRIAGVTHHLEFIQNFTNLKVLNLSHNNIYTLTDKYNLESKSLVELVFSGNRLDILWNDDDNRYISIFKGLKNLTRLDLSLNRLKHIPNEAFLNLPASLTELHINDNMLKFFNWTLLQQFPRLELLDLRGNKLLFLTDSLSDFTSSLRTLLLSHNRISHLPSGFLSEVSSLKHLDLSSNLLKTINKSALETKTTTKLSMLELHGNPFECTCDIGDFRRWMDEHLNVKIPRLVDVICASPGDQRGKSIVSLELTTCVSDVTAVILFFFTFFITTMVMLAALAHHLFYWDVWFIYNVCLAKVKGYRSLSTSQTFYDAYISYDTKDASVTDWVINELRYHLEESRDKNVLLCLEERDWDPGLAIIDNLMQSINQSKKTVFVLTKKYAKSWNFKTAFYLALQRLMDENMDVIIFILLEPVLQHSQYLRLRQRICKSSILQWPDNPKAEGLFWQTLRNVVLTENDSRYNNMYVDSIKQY
The test can be described thus: HEK/293 TLR8 Cell Assay. It counts as cell-based. The note with it: HEK cells, R848 agonist 30 uM final concentration, Steady-Glo readout; read-out: TLR8 potency.

For `C[C@@H]1CN(c2ccc(C#N)c3nccnc23)C[C@H](CN2CCC(F)(F)C2)O1` [Example 215, 8-[(2S,6R)-2-(3,3-Difluoro-pyrrolidin-1-ylmethyl)-6-methyl-morpholin-4-yl]-quinoxaline-5-carbonitrile], the IC50 is 0.075 to 0.15 µM in test [1] and over 0.15 µM in test [2].

Turning to `C[C@@H]1CN(c2ccc(C#N)c3nccnc23)C[C@H](CN2CC(O)C2)O1` [Example 216, 8-[(2S,6R)-2-(3-Hydroxy-azetidin-1-ylmethyl)-6-methyl-morpholin-4-yl]-quinoxaline-5-carbonitrile], the IC50 in test [1] is under 0.075 µM; in test [2], over 0.15 µM.

In the case of `CCN(CC)C1CCN(C[C@H]2CN(c3ccc(C#N)c4nccnc34)C[C@@H](C)O2)CC1` [Example 217, 8-[(2S,6R)-2-(4-Diethylamino-piperidin-1-ylmethyl)-6-methyl-morpholin-4-yl]-quinoxaline-5-carbonitrile], the IC50 in test [1] and in test [2] was under 0.075 µM throughout.

In the case of `C[C@@H]1CN(c2ccc(C#N)c3nccnc23)C[C@H](CN2CC(C)(O)C2)O1` [Example 218, 8-[(2S,6R)-2-(3-Hydroxy-3-methyl-azetidin-1-ylmethyl)-6-methyl-morpholin-4-yl]-quinoxaline-5-carbonitrile], the IC50 was under 0.075 µM in test [1] and over 0.15 µM in test [2].

Consider `C[C@@H]1CN(c2ccc(C#N)c3nccnc23)C[C@H](CN2CCC(O)CC2)O1` [Example 219, 8-[(2S,6R)-2-(4-Hydroxy-piperidin-1-ylmethyl)-6-methyl-morpholin-4-yl]-quinoxaline-5-carbonitrile], for which the IC50 in test [1] was 0.075 to 0.15 µM; in test [2] it was over 0.15 µM.

With `C[C@@H]1CN(c2ccc(C#N)c3nccnc23)C[C@H](CN2CC[C@H](O)C2)O1` [Example 220, 8-[(2S,6R)-2-((S)-3-Hydroxy-pyrrolidin-1-ylmethyl)-6-methyl-morpholin-4-yl]-quinoxaline-5-carbonitrile], the IC50 in test [1] is under 0.075 µM; in test [2] it was over 0.15 µM.

In the case of `C[C@@H]1CN(c2ccc(C#N)c3nccnc23)C[C@H](CN2CC[C@@H](O)C2)O1` [Example 221, 8-[(2S,6R)-2-((R)-3-Hydroxy-pyrrolidin-1-ylmethyl)-6-methyl-morpholin-4-yl]-quinoxaline-5-carbonitrile], the results for the IC50 in test [1] and in test [2] were under 0.075 µM and over 0.15 µM, respectively.

For the molecule `C[C@@H]1CN(c2ccc(C#N)c3nccnc23)C[C@H](CN2CCC(C(C)(C)O)C2)O1` (stereo partly drawn) [Example 222, 8-{(2S,6R)-2-[3-(1-Hydroxy-1-methyl-ethyl)-pyrrolidin-1-ylmethyl]-6-methyl-morpholin-4-yl}-quinoxaline-5-carbonitrile], the values for the IC50 in test [1] and in test [2] were under 0.075 µM and 0.075 to 0.15 µM, respectively.

Turning to `Cc1c(F)cc(N2C[C@H](CN3CCC(N4CCCC4)CC3)O[C@H](C)C2)c2cccnc12` [Example 223, 7-Fluoro-8-methyl-5-[(2R,6S)-2-methyl-6-(4-pyrrolidin-1-yl-piperidin-1-ylmethyl)-morpholin-4-yl]-quinoline], the IC50 in test [1] and in test [2] was under 0.075 µM each time.

Regarding `C[C@@H]1CN(c2ccc(C#N)c3ncncc23)C[C@H](CN2CCN(C)CC2)O1` [Example 224, 5-[(2R,6S)-2-Methyl-6-(4-methyl-piperazin-1-ylmethyl)-morpholin-4-yl]-quinazoline-8-carbonitrile], the IC50 in test [1] is under 0.075 µM; in test [2], over 0.15 µM.

Regarding `C[C@@H]1CN(c2ccc(C#N)c3nccnc23)C[C@H](CSC2CNC2)O1` [Example 225, 8-[(2R,6R)-2-(Azetidin-3-ylsulfanylmethyl)-6-methyl-morpholin-4-yl]-quinoxaline-5-carbonitrile hydrochloride], the IC50 in test [1] and in test [2] was under 0.075 µM throughout.

For the molecule `C[C@@H]1CN(c2ccc(C#N)c3nccnc23)C[C@H](CSC2CN(CC(C)(C)O)C2)O1` [Example 226, 8-{(2R,6R)-2-[1-(2-Hydroxy-2-methyl-propyl)-azetidin-3-ylsulfanylmethyl]-6-methyl-morpholin-4-yl}-quinoxaline-5-carbonitrile], the IC50 in test [1] and in test [2] was under 0.075 µM each time.

Consider `C[C@@H]1CN(c2ccc(C#N)c3nccnc23)C[C@H](CSCC(O)CO)O1` (stereo partly drawn) [Example 227, 8-[(2R,6R)-2-(2,3-Dihydroxy-propylsulfanylmethyl)-6-methyl-morpholin-4-yl]-quinoxaline-5-carbonitrile], for which the IC50 in test [1] is 0.075 to 0.15 µM; in test [2], under 0.075 µM.

In the case of `C[C@@H]1CN(c2ccc(C#N)c3nccnc23)C[C@H](CN2CCC(F)(C(=O)O)CC2)O1` [Example 228, 1-[(2S,6R)-4-(8-Cyano-quinoxalin-5-yl)-6-methyl-morpholin-2-ylmethyl]-4-fluoro-piperidine-4-carboxylic acid], the IC50 in test [1] and in test [2] was under 0.075 µM in each case.

Regarding `C[C@H]1CN(c2ccc(C#N)c3nccnc23)C[C@H](CN2CCN(C)CC2)O1` [Example 231, 8-[(2S,6S)-2-Methyl-6-(4-methyl-piperazin-1-ylmethyl)-morpholin-4-yl]-quinoxaline-5-carbonitrile], the IC50 in test [1] and in test [2] was under 0.075 µM each time.

Regarding `C[C@H]1CN(c2ccc(C#N)c3nccnc23)C[C@H](CN2CCC(N3CCCC3)CC2)O1` [Example 232, 8-[(2S,6S)-2-Methyl-6-(4-pyrrolidin-1-yl-piperidin-1-ylmethyl)-morpholin-4-yl]-quinoxaline-5-carbonitrile], the IC50 in test [1] and in test [2] was under 0.075 µM each time.

For the molecule `C[C@@H]1CN(c2ccc(C#N)c3nccnc23)C[C@H](C(=O)NC[C@@H](O)CO)O1` [Example 233, (2R,6R)-4-(8-Cyano-quinoxalin-5-yl)-6-methyl-morpholine-2-carboxylic acid ((R)-2,3-dihydroxy-propyl)-amide], the IC50 in test [1] and in test [2] was under 0.075 µM in each case.

Turning to `C[C@@H]1CN(c2ccc(C#N)c3nccnc23)C[C@H](C(=O)NC[C@H](O)CO)O1` [Example 234, (2R,6R)-4-(8-Cyano-quinoxalin-5-yl)-6-methyl-morpholine-2-carboxylic acid ((S)-2,3-dihydroxy-propyl)-amide], the IC50 in test [1] and in test [2] was 0.075 to 0.15 µM each time.

For the molecule `C[C@@H]1CN(c2ccc(C#N)c3nccnc23)C[C@H](C(=O)N2CC(N3CC(C)(O)C3)C2)O1` [Example 235, 8-[(2R,6R)-2-(3-Hydroxy-3-methyl-[1,3′]biazetidinyl-1′-carbonyl)-6-methyl-morpholin-4-yl]-quinoxaline-5-carbonitrile], the IC50 in test [1] and in test [2] was 0.075 to 0.15 µM each time.

The values are drawn from patent US20210300940A1 (Merck Patent GmbH, priority 2018, published 2021).
